Results published in US20240382438A1, “Calcium Channel Blockers and Methods Thereof” (University of Maryland, Eastern Shore, priority 2023, published 2024).
Entries after “also recorded” stand apart in the source; their conditions may differ.

Columns and labels:
[1] = system: LNCaP prostate cancer cells; assay: XTT cell viability assay; format: cell-based; conditions: 50 μM, 48 hours
Description: FIG. 15. Effect of RHB121, RHB62, and RHB95 on the cell viability of LNCaP prostate cancer cells. […] Cell viability was expressed as a percent of control LNCaP cells that received no treatment. Control groups were arbitrarily assigned a 100% viability value.
To assess the effect of RHB62, RHB95, and RHB121 on cell viability, the XTT assay was used.

[2] = biological target: T1, human Cav3.2 (Homo sapiens, UniProt O95180); assay: Whole-cell patch clamp of T-type Ca2+ currents in Cav3.2-stable transfected HEK 293 cells; format: cell-based; conditions: for Effect on whole cell capacitance / Effect on T-type Ca2+ current density: 50 μM; for Effect on T-type Ca2+ current density: vs non-treated cells
T1 construct: host or cells: HEK 293
Protocol: Certain exemplary embodiments have undergone target identification studies to discover a better officious T-type calcium blocker. The fourteen trifluoromethylated N-benzamide enaminone compounds were synthesized, purified, and structure confirmed using gas chromatography/mass spectroscopy, nuclear magnetic resonance, and elemental analysis. Preliminary in vitro whole cell patch clamp experiments were performed to assess the inhibitory effects of several target analogs on voltage-activated calcium currents in human embryonic kidney (HEK-293) cells. Cav3.2 transfected HEK 293 cells were treated with 50 μM of test compounds and compared to the control group (none pretreated HEK 293 cells).
(§1) ND7/23 cells are derived from the fusion of mouse neuroblastoma and rat dorsal root ganglion cells, which generates a more homogeneous sensory neuron-like cell population. ND7/23 cells were purchased from Sigma-Aldrich (RRID:CVCL_4259). Culture and differentiation of ND7/23 cells was performed as previously described. Briefly, ND7/23 cells were cultured in DMEM/F12 culture media (Millipore, Cat. #DF-041-B), supplemented with 0.5% fetal bovine serum (Invitrogen, Cat. #10437010), db-cAMP (1 mM, Sigma-Aldrich, Cat. #D0627), and nerve growth factor (NGF, 50 ng/mL, Sigma-Aldrich, Ca. #N2513). To remove any proliferating cells, cultures were treated with uridine (20 μM, Sigma-Aldrich, Cat. #U3003) and fluorodeoxyuridine (20 μM, Sigma-Aldrich, Cat. #F0503). Cells were maintained in differentiation media without uridine and fluorodeoxyuridin after induction of differentiation. ND7/23 cells were maintained in differentiation media for ≤6 days. HEK 293 cells that were stabled transfected with the human Cav3.2 and Cav3.3 channel subunits were a gift of Dr. E. Perez-Reyes (University of Virginia). Cav3.2 (or Cav3.3)-stabled transfected HEK 293 cells were culture in DMEM/F12 culture media, supplemented with 5% fetal bovine serum, 50 U/mL penicillin and 50 μg/mL streptomycin. ND7/23 and HEK 293 cells were grown in an incubator at 37° C. in the presence of 5% CO2/95% air humidified atmosphere. Cells passaged less than 20 times were used in this work. Cells were grown in poly-D-lysine-coated glass coverslips for electrophysiological recordings.
Whole cell recordings were performed as previously described. A Nikon Eclipse Ti inverted microscope equipped with Hoffman optics and epifluorescence filters was used to visualize individual cells. Recordings were performed at room temperature (22-24° C.) using glass electrodes made from thin wall borosilicate glass (3-5 MΩ). For electrophysiological recordings of inward Ca^2+ currents, outward K^+ currents were eliminated by equimolar substitution of K^+ with Cs^+ in the pipette solution, whereas inward Na^+ currents were eliminated by the use of TEA ions in the external solution, which are unable to go through voltage-gated Na^+ channels. The pipette solution consisted of (in mM) CsCl (120), MgCl2(2), HEPES (10), EGTA (10), ATP (1), and GTP (0.1), pH 7.4 with CsOH. The composition of the normal external saline used for measurements of Ca^2+ currents was (in mM): tetraethylammonium chloride (TEACl, 145), CaCl2 (10), MgCl2(1), HEPES (10), and glucose (5), pH 7.4 adjusted with CsOH. Ca^2+ currents were generated by applying a 200-500 ms-depolarizing step to various potentials from a holding potential of −100 mV. The external solution used to measure Na^+ currents contained (in mM) NaCl (145), KCl (5.3), CaCl2 (0.5), MgCl2 (5.7), HEPES (13), and glucose (5), pH 7.4 adjusted with KOH. The composition of the CsCl-pipette solution used to record Na^+ currents was the same describe above. Na^+ currents were generated by applying a 20 ms-depolarizing step to various potentials from a holding potential of −100 mV. To assess drug-evoked changes on specific ionic conductances, current amplitudes were expressed as current densities as previously reported. […]

[3] = system: voltage-activated Na^+ channels; assay: Whole-cell recording of Na+ currents in differentiated ND7/23 cells; format: cell-based, mouse neuroblastoma and rat dorsal root ganglion cells; conditions: 50 μM
Protocol: as §1
Whole cell recordings were performed as previously described. A Nikon Eclipse Ti inverted microscope equipped with Hoffman optics and epifluorescence filters was used to visualize individual cells. Recordings were performed at room temperature (22-24° C.) using glass electrodes made from thin wall borosilicate glass (3-5 MΩ). For electrophysiological recordings of inward Ca^2+ currents, outward K^+ currents were eliminated by equimolar substitution of K^+ with Cs^+ in the pipette solution, whereas inward Na^+ currents were eliminated by the use of TEA ions in the external solution, which are unable to go through voltage-gated Na^+ channels. […] To assess drug-evoked changes on specific ionic conductances, current amplitudes were expressed as current densities as previously reported. […] Cell capacitance was determined by integrating the transient current evoked by a 10-mV voltage step from a holding potential of −60 mV.
A MULTICLAMP 700A amplifier and PCLAMP software (Axon Instruments) was used to deliver voltage commands and to perform data acquisition and analysis. […] Only cells with stable seals and series resistance (≤10 MΩ) were analyzed. […]

[4] = system: differentiated ND7/23 cells; assay: Intracellular calcium signals in differentiated ND7/23 cells stimulated with KCl or ionomycin; format: cell-based, mouse neuroblastoma and rat dorsal root ganglion cells; conditions: 50 μM pre-treatment
Protocol: FIGS. 14A-C. Effect of RHB121 on the intracellular calcium signals generated in differentiated ND7/23 cells following stimulation with 30 mM extracellular K+ ions or the calcium ionophore ionomycin (10 μM). FIG. 14A. […] FIG. 14B. […] FIG. 14C. Relative changes in the intracellular calcium signal generated in differentiated ND7/23 cells by 30 mM KCl or Ionomycin (10 μM) in control or RHB121-treated cells. Control groups were arbitrarily assigned a 100% intracellular calcium signal.
To assess the effect of RHB121 on intracellular calcium signals, differentiated ND7/23 cells with a high potassium concentration (30 mM KCl) were simulated. The effect of the calcium ionophore Ionomycin, which also can increase intracellular calcium by a different mechanism, independently of T-type Ca^2+ channel activation, was also tested. Stimulation of differentiated ND7/23 with 30 mM KCl external solution caused a small increase in the intracellular calcium signal (FIG. 14A).

T1 sequence (O95180 whole entry): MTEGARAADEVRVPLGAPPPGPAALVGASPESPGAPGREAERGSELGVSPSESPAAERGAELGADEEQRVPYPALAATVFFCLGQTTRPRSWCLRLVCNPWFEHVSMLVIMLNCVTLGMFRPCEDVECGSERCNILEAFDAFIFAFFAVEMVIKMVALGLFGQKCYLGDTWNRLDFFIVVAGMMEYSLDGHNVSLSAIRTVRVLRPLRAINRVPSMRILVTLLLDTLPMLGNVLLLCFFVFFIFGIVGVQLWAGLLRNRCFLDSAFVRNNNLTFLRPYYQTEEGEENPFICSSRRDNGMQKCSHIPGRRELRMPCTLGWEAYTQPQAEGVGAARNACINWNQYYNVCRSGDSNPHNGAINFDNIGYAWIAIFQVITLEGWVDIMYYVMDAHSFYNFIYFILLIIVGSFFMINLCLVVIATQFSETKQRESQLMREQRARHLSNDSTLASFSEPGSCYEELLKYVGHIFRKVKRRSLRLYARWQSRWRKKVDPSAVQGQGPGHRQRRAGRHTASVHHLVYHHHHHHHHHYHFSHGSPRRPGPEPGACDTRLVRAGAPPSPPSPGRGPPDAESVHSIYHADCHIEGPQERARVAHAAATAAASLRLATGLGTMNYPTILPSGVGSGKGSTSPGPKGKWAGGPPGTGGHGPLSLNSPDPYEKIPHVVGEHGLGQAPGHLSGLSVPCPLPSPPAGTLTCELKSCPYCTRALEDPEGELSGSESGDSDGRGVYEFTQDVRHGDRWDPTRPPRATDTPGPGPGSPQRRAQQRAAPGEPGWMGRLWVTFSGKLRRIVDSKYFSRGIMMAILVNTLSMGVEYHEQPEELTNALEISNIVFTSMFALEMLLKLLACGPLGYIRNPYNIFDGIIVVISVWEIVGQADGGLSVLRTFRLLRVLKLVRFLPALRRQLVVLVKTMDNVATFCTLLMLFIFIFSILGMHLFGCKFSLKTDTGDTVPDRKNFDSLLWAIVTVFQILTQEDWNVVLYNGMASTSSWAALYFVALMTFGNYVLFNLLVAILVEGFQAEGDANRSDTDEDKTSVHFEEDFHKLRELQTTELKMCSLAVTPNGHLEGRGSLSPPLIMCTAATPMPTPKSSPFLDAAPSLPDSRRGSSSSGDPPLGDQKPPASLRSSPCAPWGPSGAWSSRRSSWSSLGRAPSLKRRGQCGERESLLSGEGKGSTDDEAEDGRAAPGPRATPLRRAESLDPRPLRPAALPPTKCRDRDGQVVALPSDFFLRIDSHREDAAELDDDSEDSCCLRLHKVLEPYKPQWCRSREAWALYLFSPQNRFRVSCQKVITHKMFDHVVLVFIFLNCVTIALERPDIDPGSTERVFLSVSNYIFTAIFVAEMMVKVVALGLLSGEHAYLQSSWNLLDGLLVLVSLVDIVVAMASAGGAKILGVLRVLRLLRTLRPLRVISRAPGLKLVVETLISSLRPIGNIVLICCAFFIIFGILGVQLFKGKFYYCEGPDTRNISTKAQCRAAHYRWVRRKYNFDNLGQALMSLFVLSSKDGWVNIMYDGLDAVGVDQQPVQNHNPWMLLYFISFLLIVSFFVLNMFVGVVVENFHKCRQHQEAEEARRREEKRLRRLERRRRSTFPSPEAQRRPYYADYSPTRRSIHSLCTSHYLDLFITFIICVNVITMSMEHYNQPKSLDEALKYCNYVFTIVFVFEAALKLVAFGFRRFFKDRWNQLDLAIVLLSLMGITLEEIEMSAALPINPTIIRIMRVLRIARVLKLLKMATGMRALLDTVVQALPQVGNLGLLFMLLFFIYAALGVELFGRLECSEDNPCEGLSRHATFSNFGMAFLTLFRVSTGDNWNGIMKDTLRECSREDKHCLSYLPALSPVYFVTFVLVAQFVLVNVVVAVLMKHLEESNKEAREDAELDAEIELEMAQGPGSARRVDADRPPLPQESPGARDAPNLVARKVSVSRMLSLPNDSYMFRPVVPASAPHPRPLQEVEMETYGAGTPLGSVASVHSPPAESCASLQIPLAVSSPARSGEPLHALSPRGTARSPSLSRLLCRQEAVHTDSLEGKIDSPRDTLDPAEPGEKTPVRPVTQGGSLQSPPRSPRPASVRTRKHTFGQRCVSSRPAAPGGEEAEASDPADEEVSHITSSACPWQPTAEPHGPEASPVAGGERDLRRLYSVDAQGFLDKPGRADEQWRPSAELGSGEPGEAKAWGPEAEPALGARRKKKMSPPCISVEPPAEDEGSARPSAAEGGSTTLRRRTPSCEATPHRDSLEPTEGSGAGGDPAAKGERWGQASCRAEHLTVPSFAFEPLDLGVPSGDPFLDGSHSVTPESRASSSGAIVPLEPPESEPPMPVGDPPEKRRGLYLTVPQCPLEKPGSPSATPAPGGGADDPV

Compound | Effect on cell viability (XTT assay) [1] | Effect on whole cell capacitance ([2]; HEK 293-Cav3.2 cells) | Effect on T-type Ca2+ current density ([2]; HEK 293-Cav3.2 cells) | Effect on T-type Ca2+ current density ([2]; HEK 293-Cav3.2 cells, listed as RHB-95) | Effect on Na+ current density [3] | Effect on activation time constant (τ) ([2]; 10 μM) | Shift of the steady-state inactivation curve ([2]; 10 μM) | Effect on whole cell capacitance ([2]; HEK 293-Cav3.2 cells, listed as RHB 121) | inhibition at 50 µM ([2]; HEK293, 50 μM, Cav3.2 transfected HEK 293 cells, read-out: Inhibition of calcium currents on T-type calcium channels) | Concentration dependence of the inhibition of T-type Ca2+ currents ([2]; HEK 293-Cav3.2 cells) | Effect on intracellular calcium signal evoked with 30 mM KCl [4] | Effect on intracellular calcium signal evoked with Ionomycin (10 μM) [4]
Cc1cc(C)cc(C(=O)NC2=CC(=O)CC(C(F)(F)F)C2)c1 (stereo not drawn) [RHB62] | do not affect the cell viability; also recorded: no effect on the cell viability | no significant changes; also recorded: no effect on cell capacitance | significant reduction; also recorded: reduction in the Ca^+2 current, with lower potency than RHB-77 | – | – | – | – | – | – | – | – | –
O=C1C=C(NC(=O)c2cccc(C(F)(F)F)c2)CC(C(F)(F)F)C1 (stereo not drawn) [RHB95] | do not affect the cell viability; also recorded: no effect on the cell viability | no significant changes; also recorded: no effect on cell capacitance | significant reduction | No inhibitory effect | – | – | – | – | – | – | – | –
O=C1C=C(NC(=O)c2cccc(OC(F)(F)F)c2)CC(C(F)(F)F)C1 (stereo not drawn) [RHB121, N-(3-oxo-5-(trifluoromethyl)cyclohex-1-en-1-yl)-3-(trifluoromethoxy)benzamide] | do not affect the cell viability; also recorded: no effect on the cell viability | no effect on cell capacitance | significant reduction | – | does not affect; also recorded: no effect on the Na^+ current densities | does not alter; also recorded: no effect | leftward shift | no significant changes | ~100% | concentration-dependent | complete inhibition; also recorded: significant reduction | still evoked a significant response; also recorded: significant reduction
